#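 Where inhibition never reached the appropriate level, the endpoint shown equals the highest concentration tested. Otherwise, values were interpolated linearly from a five-concentration, 48-hour dose response in 96-well plates. TGI: total growth inhibition.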
# Columns and labels:
# Assay in all cases: NCI anticancer screen, dose series, 48 h
# 786-0 renal = tested on: 786-0 renal
# A498 renal = tested on: A498 renal
# A549 NSCLC = tested on: A549 NSCLC
# ACHN renal = tested on: ACHN renal
# BT-549 breast = tested on: BT-549 breast
# CAKI-1 renal = tested on: CAKI-1 renal
# CCRF-CEM leukemia = tested on: CCRF-CEM leukemia
# COLO 205 colon = tested on: COLO 205 colon
# DU-145 prostate = tested on: DU-145 prostate
# EKVX NSCLC = tested on: EKVX NSCLC
# HCC-2998 colon = tested on: HCC-2998 colon
# HCT-116 colon = tested on: HCT-116 colon
# HCT-15 colon = tested on: HCT-15 colon
# HL-60(TB) leukemia = tested on: HL-60(TB) leukemia
# HOP-62 NSCLC = tested on: HOP-62 NSCLC
# HOP-92 NSCLC = tested on: HOP-92 NSCLC
# HS 578T breast = tested on: HS 578T breast
# HT29 colon = tested on: HT29 colon
# IGROV1 ovarian = tested on: IGROV1 ovarian
# K-562 leukemia = tested on: K-562 leukemia
# KM12 colon = tested on: KM12 colon
# LOX IMVI melanoma = tested on: LOX IMVI melanoma
# M14 melanoma = tested on: M14 melanoma
# MALME-3M melanoma = tested on: MALME-3M melanoma
# MCF7 breast = tested on: MCF7 breast
# MDA-MB-231 breast = tested on: MDA-MB-231 breast
# MDA-MB-435 = tested on: MDA-MB-435
# MDA-N = tested on: MDA-N
# MOLT-4 leukemia = tested on: MOLT-4 leukemia
# NCI-H226 lung = tested on: NCI-H226 lung
# NCI-H23 lung = tested on: NCI-H23 lung
# NCI-H460 lung = tested on: NCI-H460 lung
# NCI/ADR-RES ovarian = tested on: NCI/ADR-RES ovarian
# OVCAR-3 ovarian = tested on: OVCAR-3 ovarian
# OVCAR-4 ovarian = tested on: OVCAR-4 ovarian
# OVCAR-5 ovarian = tested on: OVCAR-5 ovarian
# OVCAR-8 ovarian = tested on: OVCAR-8 ovarian
# PC-3 prostate = tested on: PC-3 prostate
# RPMI-8226 leukemia = tested on: RPMI-8226 leukemia
# RXF 393 renal = tested on: RXF 393 renal
# SF-268 CNS = tested on: SF-268 CNS
# SF-295 CNS = tested on: SF-295 CNS
# SF-539 CNS = tested on: SF-539 CNS
# SK-MEL-2 melanoma = tested on: SK-MEL-2 melanoma
# SK-MEL-28 melanoma = tested on: SK-MEL-28 melanoma
# SK-MEL-5 melanoma = tested on: SK-MEL-5 melanoma
# SK-OV-3 ovarian = tested on: SK-OV-3 ovarian
# SN12C renal = tested on: SN12C renal
# SNB-19 CNS = tested on: SNB-19 CNS
# SNB-75 CNS = tested on: SNB-75 CNS
# SR leukemia = tested on: SR leukemia
# SW-620 colon = tested on: SW-620 colon
# T-47D breast = tested on: T-47D breast
# TK-10 renal = tested on: TK-10 renal
# U251 CNS = tested on: U251 CNS
# UACC-257 melanoma = tested on: UACC-257 melanoma
# UACC-62 melanoma = tested on: UACC-62 melanoma
# UO-31 renal = tested on: UO-31 renal
# NCI-H522 lung = tested on: NCI-H522 lung
structure (smiles),measurement,setting,value
CC(C)=CCC[C@@H](C)C1=C(O)C(Nc2ccccc2Br)=C(C)C(=O)C1=O,TGI,786-0 renal,51.2 µM
same,TGI,A498 renal,45.2 µM
same,TGI,A549 NSCLC,44.6 µM
same,TGI,ACHN renal,> 60.2 µM
same,TGI,BT-549 breast,50.1 µM
same,TGI,CAKI-1 renal,52.1 µM
same,TGI,CCRF-CEM leukemia,12.7 µM
same,TGI,COLO 205 colon,32.3 µM
same,TGI,DU-145 prostate,20.7 µM
same,TGI,EKVX NSCLC,48.3 µM
same,TGI,HCC-2998 colon,> 69.9 µM
same,TGI,HCT-116 colon,43.6 µM
same,TGI,HCT-15 colon,22.9 µM
same,TGI,HL-60(TB) leukemia,5.52 µM
same,TGI,HOP-62 NSCLC,36.8 µM
same,TGI,HOP-92 NSCLC,30.8 µM
same,TGI,HS 578T breast,49.3 µM
same,TGI,HT29 colon,37 µM
same,TGI,IGROV1 ovarian,37.3 µM
same,TGI,K-562 leukemia,> 69.9 µM
same,TGI,KM12 colon,32.1 µM
same,TGI,LOX IMVI melanoma,> 100 µM
same,TGI,M14 melanoma,29.8 µM
same,TGI,MALME-3M melanoma,26 µM
same,TGI,MCF7 breast,39.7 µM
same,TGI,MDA-MB-231 breast,61.9 µM
same,TGI,MDA-MB-435,> 65.7 µM
same,TGI,MDA-N,27.5 µM
same,TGI,MOLT-4 leukemia,25.5 µM
same,TGI,NCI-H226 lung,34.2 µM
same,TGI,NCI-H23 lung,31.2 µM
same,TGI,NCI-H460 lung,> 64.8 µM
same,TGI,NCI/ADR-RES ovarian,28.8 µM
same,TGI,OVCAR-3 ovarian,35.6 µM
same,TGI,OVCAR-4 ovarian,> 100 µM
same,TGI,OVCAR-5 ovarian,41.9 µM
same,TGI,OVCAR-8 ovarian,73 µM
same,TGI,PC-3 prostate,38.6 µM
same,TGI,RPMI-8226 leukemia,> 58.6 µM
same,TGI,RXF 393 renal,32.9 µM
same,TGI,SF-268 CNS,> 50.4 µM
same,TGI,SF-295 CNS,28.1 µM
same,TGI,SF-539 CNS,25.1 µM
same,TGI,SK-MEL-2 melanoma,41.9 µM
same,TGI,SK-MEL-28 melanoma,> 80.6 µM
same,TGI,SK-MEL-5 melanoma,16.1 µM
same,TGI,SK-OV-3 ovarian,68 µM
same,TGI,SN12C renal,28.2 µM
same,TGI,SNB-19 CNS,73 µM
same,TGI,SNB-75 CNS,66.2 µM
same,TGI,SR leukemia,45 µM
same,TGI,SW-620 colon,52.1 µM
same,TGI,T-47D breast,66.4 µM
same,TGI,TK-10 renal,68.2 µM
same,TGI,U251 CNS,99.5 µM
same,TGI,UACC-257 melanoma,43.6 µM
same,TGI,UACC-62 melanoma,38.5 µM
same,TGI,UO-31 renal,35.7 µM
Nc1ccccc1CCCC(=O)O,TGI,786-0 renal,> 100 µM
same,TGI,A498 renal,> 100 µM
same,TGI,A549 NSCLC,> 100 µM
same,TGI,ACHN renal,> 100 µM
same,TGI,BT-549 breast,> 100 µM
same,TGI,CAKI-1 renal,> 100 µM
same,TGI,CCRF-CEM leukemia,> 100 µM
same,TGI,COLO 205 colon,> 100 µM
same,TGI,DU-145 prostate,> 100 µM
same,TGI,HCC-2998 colon,> 100 µM
same,TGI,HCT-116 colon,> 100 µM
same,TGI,HCT-15 colon,> 100 µM
same,TGI,HL-60(TB) leukemia,> 100 µM
same,TGI,HOP-62 NSCLC,> 100 µM
same,TGI,HOP-92 NSCLC,> 100 µM
same,TGI,HS 578T breast,> 100 µM
same,TGI,HT29 colon,> 100 µM
same,TGI,IGROV1 ovarian,> 100 µM
same,TGI,K-562 leukemia,> 100 µM
same,TGI,KM12 colon,> 100 µM
same,TGI,LOX IMVI melanoma,> 100 µM
same,TGI,M14 melanoma,> 100 µM
same,TGI,MALME-3M melanoma,> 100 µM
same,TGI,MCF7 breast,> 100 µM
same,TGI,MDA-MB-231 breast,> 100 µM
same,TGI,MDA-MB-435,> 100 µM
same,TGI,MDA-N,> 100 µM
same,TGI,MOLT-4 leukemia,> 100 µM
same,TGI,NCI-H226 lung,> 100 µM
same,TGI,NCI-H23 lung,> 100 µM
same,TGI,NCI-H460 lung,> 100 µM
same,TGI,NCI-H522 lung,> 100 µM
same,TGI,NCI/ADR-RES ovarian,> 100 µM
same,TGI,OVCAR-3 ovarian,> 100 µM
same,TGI,OVCAR-4 ovarian,> 100 µM
same,TGI,OVCAR-5 ovarian,> 100 µM
same,TGI,OVCAR-8 ovarian,> 100 µM
same,TGI,PC-3 prostate,> 100 µM
same,TGI,RPMI-8226 leukemia,> 100 µM
same,TGI,RXF 393 renal,> 100 µM
same,TGI,SF-268 CNS,> 100 µM
same,TGI,SF-295 CNS,> 100 µM
same,TGI,SF-539 CNS,> 100 µM
same,TGI,SK-MEL-2 melanoma,> 100 µM
same,TGI,SK-MEL-28 melanoma,> 100 µM
same,TGI,SK-MEL-5 melanoma,> 100 µM
same,TGI,SK-OV-3 ovarian,> 100 µM
same,TGI,SN12C renal,> 100 µM
same,TGI,SNB-19 CNS,> 100 µM
same,TGI,SNB-75 CNS,> 100 µM
same,TGI,SR leukemia,> 100 µM
same,TGI,SW-620 colon,> 100 µM
same,TGI,T-47D breast,> 100 µM
same,TGI,TK-10 renal,> 100 µM
same,TGI,U251 CNS,> 100 µM
same,TGI,UACC-257 melanoma,> 100 µM
same,TGI,UACC-62 melanoma,> 100 µM
same,TGI,UO-31 renal,> 100 µM

# — PubChem BioAssay (NCI)
